Measured values from patent publication US9796704B2, “Substituted quinazolines as receptor-type kinase inhibitors” (Symphony Evolution, Inc., priority 2002, dated 2017).

These compounds were tested against EGFR (Homo sapiens (Human), UniProt P00533) (assay: EGFR kinase inhibition, luciferase-coupled chemiluminescent assay (LCCA)). Conditions: read-out: EGFR IC50.
Sequence of EGFR (P00533 672-1210): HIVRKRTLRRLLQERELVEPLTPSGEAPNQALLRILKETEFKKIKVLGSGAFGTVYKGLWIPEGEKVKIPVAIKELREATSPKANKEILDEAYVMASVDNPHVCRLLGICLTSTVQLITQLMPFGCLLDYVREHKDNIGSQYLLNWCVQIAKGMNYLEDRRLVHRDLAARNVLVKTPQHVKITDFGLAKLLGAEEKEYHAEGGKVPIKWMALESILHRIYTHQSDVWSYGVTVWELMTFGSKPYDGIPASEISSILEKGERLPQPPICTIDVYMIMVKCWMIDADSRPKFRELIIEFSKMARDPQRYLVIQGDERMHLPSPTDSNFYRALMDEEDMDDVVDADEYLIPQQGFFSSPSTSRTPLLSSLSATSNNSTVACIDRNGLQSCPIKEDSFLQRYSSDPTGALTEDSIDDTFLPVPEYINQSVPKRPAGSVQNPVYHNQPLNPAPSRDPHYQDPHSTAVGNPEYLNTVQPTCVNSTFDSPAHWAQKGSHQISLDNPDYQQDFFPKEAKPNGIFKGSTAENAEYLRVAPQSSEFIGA

| IC50 | Structure (SMILES) |
| --- | --- |
| 0.05 to 1 µM | COc1cc2c(Nc3ccc(Cl)c(Cl)c3F)ncnc2cc1OC[C@@H]1CN2CCCC[C@@H]2C(=O)N1 [Example 50, (3S,9aR)-3-({[4-[(3,4-dichloro-2-fluorophenyl)amino]-6-(methyloxy)quinazolin-7-yl]oxy}methyl)hexahydro-2H-pyrido[1,2-a]pyrazin-1(6H)-one] |
| < 0.05 µM | C=C1CO[C@@H]2[C@@H](Oc3cc4ncnc(Nc5ccc(Br)c(Cl)c5)c4cc3OC)CO[C@H]12 [Example 81, 1,4:3,6-dianhydro-2-O-[4-[(4-bromo-3-chlorophenyl)amino]-6-(methyloxy)quinazolin-7-yl]-5-deoxy-5-methylidene-D-xylo-hexitol] |
| < 0.05 µM | COc1cc2c(Nc3ccc(Br)c(Cl)c3)ncnc2cc1O[C@H]1CO[C@@H]2[C@@H](OC)[C@@H](OC)O[C@@H]21 [Example 82, methyl 3,6-anhydro-5-O-[4-[(4-bromo-3-chlorophenyl)amino]-6-(methyloxy)quinazolin-7-yl]-2-O-methyl-beta-L-idofuranoside] |
| < 0.05 µM | COc1cc2c(Nc3ccc(Cl)c(Cl)c3F)ncnc2cc1OCC1CCC2CCCCN2C1 (centres unmarked) [Example 83, N-(3,4-dichloro-2-fluorophenyl)-6-(methyloxy)-7-[(octahydro-2H-quinolizin-3-ylmethyl)oxy]quinazolin-4-amine] |
| < 0.05 µM | COc1cc2c(Nc3ccc(F)cc3Cl)ncnc2cc1O[C@@H]1CO[C@@H]2[C@H]1OC[C@H]2F [Example 85, 1,4:3,6-dianhydro-5-O-[4-[(2-chloro4-fluorophenyl)amino]-6-(methyloxy)quinazolin-7-yl]-2-deoxy-2-fluoro-D-iditol] |
| < 0.05 µM | COc1cc2c(Nc3ccc(F)cc3Br)ncnc2cc1O[C@@H]1CO[C@@H]2[C@H]1OC[C@H]2F [Example 86, 1,4:3,6-dianhydro-5-O-[4-[(2-bromo-4-fluorophenyl)amino]-6-(methyloxy)quinazolin-7-yl]-2-deoxy-2-fluoro-D-iditol] |
| < 0.05 µM | COc1cc2c(Nc3cccc(Cl)c3F)ncnc2cc1O[C@@H]1CO[C@@H]2[C@H]1OC[C@H]2F [Example 88, 1,4:3,6-dianhydro-5-O-[4-[(3-chloro-2-fluorophenyl)amino]-6-(methyloxy)quinazolin-7-yl]-2-deoxy-2-fluoro-D-iditol] |
| < 0.05 µM | COc1cc2c(Nc3cc(F)ccc3F)ncnc2cc1O[C@@H]1CO[C@@H]2[C@H]1OC[C@H]2F [Example 91, 1,4:3,6-dianhydro-2-deoxy-5-O-[4-[(2,5-difluorophenyl)amino]-6-(methyloxy)quinazolin-7-yl]-2-fluoro-D-iditol] |
| < 0.05 µM | COc1cc2c(Nc3cc(Cl)ccc3F)ncnc2cc1O[C@@H]1CO[C@@H]2[C@H]1OC[C@H]2F [Example 93, 1,4:3,6-dianhydro-5-O-[4-[(5-chloro-2-fluorophenyl)amino]-6-(methyloxy)quinazolin-7-yl]-2-deoxy-2-fluoro-D-iditol] |
| < 0.05 µM | COc1cc2c(Nc3ccc(F)c(Cl)c3)ncnc2cc1O[C@@H]1CO[C@@H]2[C@H]1OC[C@H]2F [Example 95, 1,4:3,6-dianhydro-5-O-[4-[(3-chloro-4-fluorophenyl)amino]-6-(methyloxy)quinazolin-7-yl]-2-deoxy-2-fluoro-D-iditol] |
| < 0.05 µM | COc1cc2c(Nc3c(F)cc(F)cc3F)ncnc2cc1O[C@@H]1CO[C@@H]2[C@H]1OC[C@H]2F [Example 100, 1,4:3,6-dianhydro-2-deoxy-2-fluoro-5-O-{6-(methyloxy)-4-[(2,4,6-trifluorophenyl)amino]quinazolin-7-yl}-D-iditol] |
| < 0.05 µM | COc1cc2c(Nc3cc(F)c(Oc4ccc(Cl)cc4)c(F)c3)ncnc2cc1O[C@@H]1CO[C@@H]2[C@H]1OC[C@H]2F [Example 101, 1,4:3,6-dianhydro-5-O-[4-({4-[(4-chlorophenyl)oxy]-3,5-difluorophenyl}amino)-6-(methyloxy)quinazolin-7-yl]-2-deoxy-2-fluoro-D-iditol] |
| < 0.05 µM | COc1cc2c(Nc3ccc(Br)c(Cl)c3F)ncnc2cc1O[C@@H]1CO[C@@H]2[C@H]1OC[C@H]2F [Example 102, 1,4:3,6-dianhydro-5-O-[4-[(4-bromo-3-chloro-2-fluorophenyl)amino]-6-(methyloxy)quinazolin-7-yl]-2-deoxy-2-fluoro-D-iditol] |
| < 0.05 µM | COc1cc2c(Nc3cccc(Cl)c3C)ncnc2cc1O[C@@H]1CO[C@@H]2[C@H]1OC[C@H]2F [Example 110, 1,4:3,6-dianhydro-5-O-[4-[(3-chloro-2-methylphenyl)amino]-6-(methyloxy)quinazolin-7-yl]-2-deoxy-2-fluoro-D-iditol] |
| < 0.05 µM | COc1cc2c(Nc3ccc(F)c(F)c3)ncnc2cc1O[C@@H]1CO[C@@H]2[C@H]1OC[C@H]2F [Example 111, 1,4:3,6-dianhydro-2-deoxy-5-O-[4-[(3,4-difluorophenyl)amino]-6-(methyloxy)quinazolin-7-yl]-2-fluoro-D-iditol] |
| < 0.05 µM | COc1cc2c(Nc3ccccc3Cl)ncnc2cc1O[C@@H]1CO[C@@H]2[C@H]1OC[C@H]2F [Example 112, 1,4:3,6-dianhydro-5-O-[4-[(2-chlorophenyl)amino]-6-(methyloxy)quinazolin-7-yl]-2-deoxy-2-fluoro-D-iditol] |

| IC50 | Structure (SMILES) |
| --- | --- |
| < 0.05 µM | COc1cc2c(Nc3ccccc3F)ncnc2cc1O[C@@H]1CO[C@@H]2[C@H]1OC[C@H]2F [Example 113, 1,4:3,6-dianhydro-2-deoxy-2-fluoro-5-O-[4-[(2-fluorophenyl)amino]-6-(methyloxy)quinazolin-7-yl]-D-iditol] |
| < 0.05 µM | COc1cc2c(Nc3ccc(Cl)cc3)ncnc2cc1O[C@@H]1CO[C@@H]2[C@H]1OC[C@H]2F [Example 116, 1,4:3,6-dianhydro-5-O-[4-[(4-chlorophenyl)amino]-6-(methyloxy)quinazolin-7-yl]-2-deoxy-2-fluoro-D-iditol] |
| < 0.05 µM | COc1cc2c(Nc3ccc(Cl)c(C(F)(F)F)c3)ncnc2cc1O[C@@H]1CO[C@@H]2[C@H]1OC[C@H]2F [Example 121, 1,4:3,6-dianhydro-5-O-[4-{[4-chloro-3-(trifluoromethyl)phenyl]amino}-6-(methyloxy)quinazolin-7-yl]-2-deoxy-2-fluoro-D-iditol] |
| < 0.05 µM | COc1cc2c(Nc3cccc(C(F)(F)F)c3F)ncnc2cc1O[C@@H]1CO[C@@H]2[C@H]1OC[C@H]2F [Example 123, 1,4:3,6-dianhydro-2-deoxy-2-fluoro-5-O-[4-{[2-fluoro-3-(trifluoromethyl)phenyl]amino}-6-(methyloxy)quinazolin-7-yl]-D-iditol] |
| < 0.05 µM | COc1cc2c(Nc3cc(C(F)(F)F)ccc3Br)ncnc2cc1O[C@@H]1CO[C@@H]2[C@H]1OC[C@H]2F [Example 124, 1,4:3,6-dianhydro-5-O-[4-{[2-bromo-5-(trifluoromethyl)phenyl]amino}-6-(methyloxy)quinazolin-7-yl]-2-deoxy-2-fluoro-D-iditol] |
| < 0.05 µM | COc1cc2c(Nc3ccc(F)cc3C(F)(F)F)ncnc2cc1O[C@@H]1CO[C@@H]2[C@H]1OC[C@H]2F [Example 126, 1,4:3,6-dianhydro-2-deoxy-2-fluoro-5-O-[4-{[4-fluoro-2-(trifluoromethyl)phenyl]amino}-6-(methyloxy)quinazolin-7-yl]-D-iditol] |
| < 0.05 µM | COc1cc2c(Nc3ccccc3Br)ncnc2cc1O[C@@H]1CO[C@@H]2[C@H]1OC[C@H]2F [Example 128, 1,4:3,6-dianhydro-5-O-[4-[(2-bromophenyl)amino]-6-(methyloxy)quinazolin-7-yl]-2-deoxy-2-fluoro-D-iditol] |
| < 0.05 µM | COc1cc2c(Nc3ccc(Br)cc3)ncnc2cc1O[C@@H]1CO[C@@H]2[C@H]1OC[C@H]2F [Example 130, 1,4:3,6-dianhydro-5-O-[4-[(4-bromophenyl)amino]-6-(methyloxy)quinazolin-7-yl]-2-deoxy-2-fluoro-D-iditol] |
| < 0.05 µM | COc1cc2c(Nc3ccc(C)c(Br)c3)ncnc2cc1O[C@@H]1CO[C@@H]2[C@H]1OC[C@H]2F [Example 131, 1,4:3,6-dianhydro-5-O-[4-[(3-bromo-4-methylphenyl)amino]-6-(methyloxy)quinazolin-7-yl]-2-deoxy-2-fluoro-D-iditol] |
| < 0.05 µM | COc1cc2c(Nc3cc(C)cc(C)c3)ncnc2cc1O[C@@H]1CO[C@@H]2[C@H]1OC[C@H]2F [Example 133, 1,4:3,6-dianhydro-2-deoxy-5-O-[4-[(3,5-dimethylphenyl)amino]-6-(methyloxy)quinazolin-7-yl]-2-fluoro-D-iditol] |
| < 0.05 µM | COc1cc(Nc2ncnc3cc(O[C@@H]4CO[C@@H]5[C@H]4OC[C@H]5F)c(OC)cc23)c(OC)cc1Cl [Example 136, 1,4:3,6-dianhydro-5-O-[4-{[4-chloro-2,5-bis(methyloxy)phenyl]amino}-6-(methyloxy)quinazolin-7-yl]-2-deoxy-2-fluoro-D-iditol] |
| < 0.05 µM | COc1cc2c(Nc3ccc(Cl)c(Cl)c3)ncnc2cc1OCC1CNCCO1 (centres unmarked) [Example 144, N-(3,4-dichlorophenyl)-6-(methyloxy)-7-[(morpholin-2-ylmethyl)oxy]quinazolin-4-amine] |
| < 0.05 µM | COc1cc2c(Nc3ccc(Cl)c(Cl)c3)ncnc2cc1OCC1CNCCCO1 (centres unmarked) [Example 152, N-(3,4-dichlorophenyl)-6-(methyloxy)-7-[(1,4-oxazepan-2-ylmethyl)oxy]quinazolin-4-amine] |
| < 0.05 µM | COc1cc2c(Nc3ccc(Cl)c(Cl)c3)ncnc2cc1OCc1cccc2nsnc12 [Example 159, 7-[(2,1,3-benzothiadiazol-4-ylmethyl)oxy]-N-(3,4-dichlorophenyl)-6-(methyloxy)quinazolin-4-amine] |
| < 0.05 µM | COc1cc2c(Nc3ccc(Cl)c(Cl)c3)ncnc2cc1OCc1nc2ccccc2s1 [Example 162, 7-[(1,3-benzothiazol-2-ylmethyl)oxy]-N-(3,4-dichlorophenyl)-6-(methyloxy)quinazolin-4-amine] |
| < 0.05 µM | COc1cc2c(Nc3ccc(Cl)c(Cl)c3)ncnc2cc1OCc1cnn(-c2ccccc2)c1 [Example 165, N-(3,4-dichlorophenyl)-6-(methyloxy)-7-{[(1-phenyl-1H-pyrazol-4-yl)methyl]oxy}quinazolin-4-amine] |
